Measured values taken from patent publication US12257237B2 (priority 2017, dated 2025).
Values joined by “and” are separate entries in the source; they are usually repeats but may differ in a detail not shown here. Equal entries are not always repeated.

Assays:
[1] = test system: TC-71 Ewing sarcoma; experiment: Antitumour activity in TC-71 Ewing sarcoma xenograft model; format: in vivo, Athymic nude mice
Description: (§1) Experiments were performed with female Athymic nude mice, 9-10 weeks old obtained from Harlan Laboratories (Udine, Italy). They were maintained under Specific Pathogen Free conditions with constant temperature and humidity, according to the institutional guidelines.
(§2) Tumour growth mice was monitored two/three times a week (depending on tumour growth rate, to avoid unnecessary stress to the animals) by Vernier caliper. Mice were sacrificed when tumour reached a mean weight of 2±0.5 gr. The antitumour activity will be expressed as T/C %, where T and C were the mean tumour weight of treated and control groups, respectively. Mice were monitored daily and weighted at least two times a week. Tolerability was evaluated on the basis of body weight loss (BWL) and clinical observation.
Statistical analysis was performed with GraphPad Prism version 6.01 software (GraphPad software, Inc., La Jolla, CA, USA). ANOVA test was performed to evaluate if there were statistically significant differences between treated and control groups.
5×10^6 TC-71 cells were inoculated subcutaneously in the right flank of mice. The growing tumour masses were measured with the aid of a Vernier caliper, and the tumour weights (1 mm^3=1 mg) were calculated by the formula: length×(width) 2/2. When tumour load achieved about 100 mg, mice were randomized into the experimental groups and treatment started.

[2] = Drug tolerability (body weight) in TC-71 Ewing sarcoma xenograft model; format: in vivo, Athymic nude mice; conditions: Irinotecan 50 mg/kg; for BWL %: negative = loss vs day 9
Description: as §1, §2

[3] = 50 mg/kg i.v. q7dx3, day 9 from inoculum
[4] = 50 mg/kg i.v. q7dx3, day 11 from inoculum
[5] = 50 mg/kg i.v. q7dx3, day 14 from inoculum
[6] = 50 mg/kg i.v. q7dx3, day 16 from inoculum
[7] = 50 mg/kg i.v. q7dx3, day 18 from inoculum
[8] = 50 mg/kg i.v. q7dx3, day 21 from inoculum
[9] = 50 mg/kg i.v. q7dx3, day 23 from inoculum
[10] = 50 mg/kg i.v. q7dx3, day 25 from inoculum
[11] = 50 mg/kg i.v. q7dx3, day 28 from inoculum
[12] = 50 mg/kg i.v. q7dx3, day 30 from inoculum
[13] = 50 mg/kg i.v. q7dx3, day 32 from inoculum
[14] = 50 mg/kg i.v. q7dx3, day 35 from inoculum
[15] = 50 mg/kg i.v. q7dx3, day 38 from inoculum
[16] = 50 mg/kg i.v. q7dx3, day 42 from inoculum
[17] = 50 mg/kg i.v. q7dx3, day 45 from inoculum
[18] = 50 mg/kg i.v. q7dx3, day 49 from inoculum
[19] = 50 mg/kg i.v. q7dx3, day 53 from inoculum
[20] = day 9 from tumour inoculum (treatment start)

CCc1c2c(nc3ccc(OC(=O)N4CCC(N5CCCCC5)CC4)cc13)-c1cc3c(c(=O)n1C2)COC(=O)[C@]3(O)CC [Irinotecan, reference compound]
TC-71 tumour weight, individual mice [1, 3]: 316.8 mg and 124.6 mg and 103.5 mg and 88.1 mg | TC-71 tumour weight, mean [1, 3]: 106.4 mg | TC-71 tumour weight, individual mice [1, 4]: 90.6 mg and 45.7 mg and 63.3 mg | TC-71 tumour weight, mean [1, 4]: 76.4 mg | TC-71 tumour weight, individual mice [1, 5]: 87.8 mg and 16.6 mg and 9.9 mg and 17.1 mg | TC-71 tumour weight, mean [1, 5]: 22.6 mg | TC-71 tumour weight, individual mice [1, 6]: 99.6 mg and 41.5 mg and 23.8 mg and 72.8 mg | TC-71 tumour weight, mean [1, 6]: 35.0 mg | TC-71 tumour weight, individual mice [1, 7]: 44.2 mg and 11.3 mg and 8.8 mg and 28.1 mg | TC-71 tumour weight, mean [1, 7]: 14.8 mg | optimal T/C ([1]; 50 mg/kg i.v. q7dx3, day 21): 0.4% | TC-71 tumour weight, individual mice [1, 8]: 9.6 mg and 2.4 mg and 6.1 mg and 7.5 mg | TC-71 tumour weight, mean [1, 8]: 6.1 mg | TC-71 tumour weight, individual mice [1, 9]: 1.7 mg and 5.4 mg | TC-71 tumour weight, mean [1, 9]: 7.0 mg | TC-71 tumour weight, individual mice [1, 10]: 9.9 mg and 3.3 mg | TC-71 tumour weight, mean [1, 10]: 5.9 mg | TC-71 tumour weight, individual mice [1, 11]: 6.8 mg and 1.5 mg and 3.3 mg and 2.5 mg | TC-71 tumour weight, mean [1, 11]: 3.5 mg | TC-71 tumour weight, individual mice [1, 12]: 15.4 mg and 2.7 mg and 3.8 mg and 2.6 mg | TC-71 tumour weight, mean [1, 12]: 6.1 mg | TC-71 tumour weight, individual mice [1, 13]: 83.7 mg and 8.2 mg and 12.1 mg and 9.2 mg | TC-71 tumour weight, mean [1, 13]: 28.3 mg | TC-71 tumour weight, individual mice [1, 14]: 223.4 mg and 42.7 mg and 36.0 mg and 53.8 mg | TC-71 tumour weight, mean [1, 14]: 88.9 mg | TC-71 tumour weight, individual mice [1, 15]: 713.8 mg and 105.6 mg and 74.5 mg and 145.5 mg | TC-71 tumour weight, mean [1, 15]: 259.8 mg | TC-71 tumour weight, individual mice [1, 16]: 2687.8 mg and 327.2 mg and 346.6 mg and 199.0 mg | TC-71 tumour weight, mean [1, 16]: 890.2 mg | TC-71 tumour weight, individual mice [1, 17]: 2443.2 mg and 627.6 mg and 589.7 mg and 305.0 mg | TC-71 tumour weight, mean [1, 17]: 991.4 mg | TC-71 tumour weight, individual mice [1, 18]: 2887.4 mg and 1184.6 mg and 1244.3 mg and 316.1 mg | TC-71 tumour weight, mean [1, 18]: 1408.1 mg | TC-71 tumour weight, individual mice [1, 19]: 3331.8 mg and 1062.6 mg and 2135.1 mg and 308.0 mg | TC-71 tumour weight, mean [1, 19]: 1709.4 mg | mice exhibiting sustained CR up to the conclusion of the experiment ([1]; 50 mg/kg q7dx3): 4 mice | tumour regression ([1]; 50 mg/kg q7dx3): tumour regression in all mice | Mouse body weight, group Mean [2, 20]: 27.4 g | BWL % [2, 20]: 0.0% | Mouse body weight, group Mean ([2]; day 10 from tumour inoculum): 25.8 g | BWL % ([2]; day 10 from tumour inoculum): −6.1% | Mouse body weight, group Mean ([2]; day 11 from tumour inoculum): 25.6 g | BWL % ([2]; day 11 from tumour inoculum): −6.6% | Mouse body weight, group Mean ([2]; day 14 from tumour inoculum): 26.9 g | BWL % ([2]; day 14 from tumour inoculum): −1.9% | Mouse body weight, group Mean ([2]; day 16 from tumour inoculum): 27.0 g | BWL % ([2]; day 16 from tumour inoculum): −1.7% | Mouse body weight, group Mean ([2]; day 18 from tumour inoculum): 26.0 g | BWL % ([2]; day 18 from tumour inoculum): −5.3% | Mouse body weight, group Mean ([2]; day 21 from tumour inoculum): 26.2 g | BWL % ([2]; day 21 from tumour inoculum): −4.3% | Mouse body weight, group Mean ([2]; day 23 from tumour inoculum): 26.5 g | BWL % ([2]; day 23 from tumour inoculum): −3.5% | Mouse body weight, group Mean ([2]; day 25 from tumour inoculum): 25.4 g | BWL % ([2]; day 25 from tumour inoculum): −7.5% | Mouse body weight, group Mean ([2]; day 28 from tumour inoculum): 26.4 g | BWL % ([2]; day 28 from tumour inoculum): −3.9% | Mouse body weight, group Mean ([2]; day 30 from tumour inoculum): 27.1 g | BWL % ([2]; day 30 from tumour inoculum): −1.1% | Mouse body weight, group Mean ([2]; day 32 from tumour inoculum): 27.0 g | BWL % ([2]; day 32 from tumour inoculum): −1.6% | Mouse body weight, group Mean ([2]; day 35 from tumour inoculum): 27.9 g | BWL % ([2]; day 35 from tumour inoculum): 1.7% | Mouse body weight, group Mean ([2]; day 38 from tumour inoculum): 27.2 g | BWL % ([2]; day 38 from tumour inoculum): −0.7% | Mouse body weight, group Mean ([2]; day 42 from tumour inoculum): 28.4 g | BWL % ([2]; day 42 from tumour inoculum): 3.5% | Mouse body weight, group Mean ([2]; day 46 from tumour inoculum): 27.8 g | BWL % ([2]; day 46 from tumour inoculum): 1.5% | Mouse body weight, group Mean ([2]; day 49 from tumour inoculum): 28.4 g | BWL % ([2]; day 49 from tumour inoculum): 3.6% | Mouse body weight, group Mean ([2]; day 53 from tumour inoculum): 28.1 g | BWL % ([2]; day 53 from tumour inoculum): 2.3%
